Literature values, collected in paper PMC3127977, “No relevant cardiac, pharmacokinetic or safety interactions between roflumilast and inhaled formoterol in healthy subjects: an open-label, randomised, actively controlled study” (BMC Clinical Pharmacology, 2011).
Where two headings read alike, the source gives them in different places.

Settings: cited from earlier work
[1] = CYP3A4 inhibitors co-administered with roflumilast

| Compound | increase of tPDE4i (CYP1A2 or dual CYP3A4/1A2 inhibitor co-administered with roflumilast) | increase of tPDE4i [1] |
| --- | --- | --- |
| CCn1cc(C(=O)O)c(=O)c2cc(F)c(N3CCNCC3)nc21 [enoxacin] | 25% | – |
| CC[C@H]1OC(=O)[C@H](C)[C@@H](O[C@H]2C[C@@](C)(OC)[C@@H](O)[C@H](C)O2)[C@H](C)[C@@H](O[C@@H]2O[C@H](C)C[C@H](N(C)C)[C@H]2O)[C@](C)(O)C[C@@H](C)C(=O)[C@H](C)[C@@H](O)[C@]1(C)O [erythromycin] | – | 8-9% |
| CC(=O)N1CCN(c2ccc(OCC3COC(Cn4ccnc4)(c4ccc(Cl)cc4Cl)O3)cc2)CC1 (stereo not drawn) [ketoconazole] | – | 8-9% |
